One data set deals with A. fumigatus SglA (Aspergillus fumigatus, UniProt Q4WXA7). Kind of data set: Ergosterol 3β-D-glucoside (ErgGlc) hydrolysis by SglA, ergosterol quantified by HPLC. Type of data set: biochemical. The procedure:
We assessed the potential inhibition of SglA enzymatic activity toward ErgGlc by the seven derivatives at concentrations of 0.1, 1, 10, and 100 μM.
A 50-μL volume of wild-type Af SglA containing 10 ng of protein (0.11 pmol) and 50 μL of mixed micelles of lipid and Triton X-100 in 50 mM sodium acetate buffer (pH 5.5) with 150 mM NaCl, 5 mM βME, and 5 mM DTT were mixed and incubated at 37°C for 20 min (ErgGlc; Avanti Polar Lipids). After the incubation period, each reaction was quenched with a 2:1 chloroform-methanol solution, and the organic phase was collected and dried. Then, the lipid content was resuspended in […] methanol and analized by HPLC using Agilent 1260 Infinity II (Agilent Technologies). Total ErgGlc and ergosterol were detected at 282 nm on a C8 column with a flow rate of 0.5 mL/min in methanol-water (90:10) buffered with 1 mM ammonium formate and 0.2% formic acid.

In data set [1] the test system is human lung epithelial cancer cell line A549. To be noted: 24 h. The protocol:
The cells were maintained in Dulbecco’s modified Eagle medium (DMEM) containing 10% fetal bovine serum (FBS) and 1% penicillin-streptomycin. At passage 11, 10^5 cells were transferred into each well of 96-well plates and cultured for 18 to 24 h to allow the cells to adhere to the well surface. Next, the medium was removed, and fresh medium containing the selected compounds at concentration range of 1 to 512 μM was added to the wells. Controls with equivalent serial concentrations of DMSO were also evaluated and compared with a control without DMSO. The plate was incubated at 37°C with 5% CO2. After 24 h, the supernatant was removed and 50 μL of 5 mg/mL 3-(4,5-dimethylthiazol-2-yl)-2,5-diphenyltetrazoliumbromide (MTT) solution in PBS was added to each well. The plates were incubated for an additional 4 h, and the formazan crystals formed inside the cell were dissolved by adding 50 μL DMSO. Next, the absorbance was measured at 570 nm, and the calculated LD50 was divided by the IC50 of each hit in order to determine the SI of each compound.

Data set [2] deals with wild-type Af. Kind of data set: Filamentation assay (hyphal length). Particulars: 12 h. Type of data set: cell-based, Aspergillus fumigatus. The procedure:
To evaluate hyphal growth, conidial suspensions of the Af wild-type strain ΔKu80pyrG1a and the Δsgla and Δsgla+SGLA strains were obtained as described above. Then, the assay conditions were performed as previously described by Fernandes et al. ([16]). For that, 1 × 10^5 conidia of strain ΔKu80pyrG1a were inoculated onto a glass-bottom dish containing 2 mL of MM or MM+UU with and without the experimental compounds in various concentrations and grown at 37°C for 10 to 12 h. MM broth without the compounds were used for the mutant and the reconstituted strains. The living hyphae growing attached to the glass were analyzed by differential inference contrast (DIC) microscopy using a Zeiss Observer D.1 microscope, and the hyphal length was measured using ImageJ software.

Data set [3] concerns wild-type Af. In words: Ergosterol 3-β-D-glucoside accumulation in live cells (LC-MS). Type of data set: cell-based, Aspergillus fumigatus. Particulars: 48 h; for ErgGlc accumulation versus control (untreated wild-type Af): 100 and 500 μM. The procedure:
Wild-type Af ΔKu80pyrG1a and the mutant Δsgla strain were cultivated in yeast extract-glucose medium (YAG) (2% [wt/vol] glucose, 0.5% [wt/vol] yeast extract, 1× trace elements, 1× amino acid solution, 2% [wt/vol] bacteriological agar) for 48 h at 37°C. High-nitrate salts, trace elements, and amino acid solutions were prepared as previously described ([37]). The medium was supplemented with 1.2 g/L of uracil and uridine (UU), generating YAG+UU medium when the strain ΔKu80pyrG1a was used. After that, the a conidial suspension in water was obtained, and a pellet with 1 × 10^7 conidia was treated in minimal medium broth pH 6.5 (MM or MM+UU) (1% [wt/vol] glucose, 1× high-nitrate salts, 1× trace elements) for 48 h at 37°C under agitation, with the hits selected, according to the toxicity criteria, at various concentrations. […] After that, the resultant hyphal pellet was used for lipid extraction. Then, the total lipid was extracted as described by Singh et al. ([39]). The dried samples were resuspended in 2:1 chloroform-methanol for liquid chromatography-mass spectrometry (LC-MS) analysis. A standard ErgGlc from Avanti Polar Lipids was used as a control for the calibration curve. Data were normalized to the total inorganic phosphate content in the sample.

In data set [4] the test system is Af wild-type strain. In words: Lung fungal burden quantification by qPCR. Type of data set: in vivo, CBA/J mice. Particulars: hit B 20, hit C 60, B7 5 mg/kg/day intraperitoneally. The protocol: Lung fungal burden was assessed by the determination of the amplification of fungal 18S DNA by qPCR. The lungs of euthanized mice were aseptically removed and immediately frozen in liquid nitrogen. Genomic DNA extraction was carried out as previously described by Malavazi and Goldman ([40]) with modifications. Previous to the genomic DNA extraction, the lungs were lyophilized for 2 to 3 days, ground using 2-mm glass beads, resuspended in 1 mL of lysis buffer, and vortexed thoroughly. One milliliter of phenol-chloroform–isoamyl alcohol (25:24:1), stabilized and saturated with 100 mM Tris-EDTA to pH 8.0 (Sigma-Aldrich), was added, and the mixture was vortexed for 10 min to extract nucleic acid. The mixture was centrifuged, and the aqueous phase was collected, and the genomic DNA was precipitated with 500 μL isopropanol. The DNA pellet was washed with 500 μL cold 70% ethanol and air dried, and the DNA pellet was resuspended in 100 μL of DNase-free water. The primers Fungal 18S 5′ UTR fw ([…]) and 3′ UTR rv ([…]) and the mouse glyceraldehyde-3-phosphate dehydrogenase (GAPDH) primers 5′ UTR fw ([…]) and 3′ UTR rv ([…]) were amplified using SYBR green PCR master mix (Thermo Fisher Scientific).
(In general: Real-time PCR tracks product formation cycle by cycle.)

Another data set deals with Af SglA (Aspergillus fumigatus, UniProt Q4WXA7). Kind of data set: HTS / resorufin 3β-D-glucopyranoside (ResGlp) enzymatic assay of SglA. Type of data set: biochemical. Particulars: primary screen, ResGlp as the substrate, single compounds 0.25 to 4 μM. The protocol: (§1) Resorufin 3β-D-glucopyranoside (ResGlp; Sigma-Aldrich) enzyme kinetic assays were performed according to methods described by Pereira de Sa et al. ([17]). Reaction buffer contained 50 mM citric acid, 176 mM K2HPO4 (pH 6), 0.01% Tween 20, and 10 mM sodium taurocholate. The reaction was carried out in a black 96-well plate using 0.23 pmol of SglA with 100 μM ResGlp substrate. 10 μL/well of ResGlp was added to each well and the reaction was initiated by adding 20 μL enzyme (0.23 pmol). After incubation at 37°C for 30 min, the fluorescence was read at an excitation of 570 (±10) nm and an emission of 610 (±10) nm on a VersaMax microplate reader from Molecular Devices. A standard curve was prepared with serial dilutions of the free fluorophore, resorufin, in the same volume of assay buffer. All reactions were linear with respect to time and protein concentration, and the pH, temperature, and dimethyl sulfoxide (DMSO) optimal tolerance were verified.
Sequence of Af SglA (Q4WXA7 entry or part of it): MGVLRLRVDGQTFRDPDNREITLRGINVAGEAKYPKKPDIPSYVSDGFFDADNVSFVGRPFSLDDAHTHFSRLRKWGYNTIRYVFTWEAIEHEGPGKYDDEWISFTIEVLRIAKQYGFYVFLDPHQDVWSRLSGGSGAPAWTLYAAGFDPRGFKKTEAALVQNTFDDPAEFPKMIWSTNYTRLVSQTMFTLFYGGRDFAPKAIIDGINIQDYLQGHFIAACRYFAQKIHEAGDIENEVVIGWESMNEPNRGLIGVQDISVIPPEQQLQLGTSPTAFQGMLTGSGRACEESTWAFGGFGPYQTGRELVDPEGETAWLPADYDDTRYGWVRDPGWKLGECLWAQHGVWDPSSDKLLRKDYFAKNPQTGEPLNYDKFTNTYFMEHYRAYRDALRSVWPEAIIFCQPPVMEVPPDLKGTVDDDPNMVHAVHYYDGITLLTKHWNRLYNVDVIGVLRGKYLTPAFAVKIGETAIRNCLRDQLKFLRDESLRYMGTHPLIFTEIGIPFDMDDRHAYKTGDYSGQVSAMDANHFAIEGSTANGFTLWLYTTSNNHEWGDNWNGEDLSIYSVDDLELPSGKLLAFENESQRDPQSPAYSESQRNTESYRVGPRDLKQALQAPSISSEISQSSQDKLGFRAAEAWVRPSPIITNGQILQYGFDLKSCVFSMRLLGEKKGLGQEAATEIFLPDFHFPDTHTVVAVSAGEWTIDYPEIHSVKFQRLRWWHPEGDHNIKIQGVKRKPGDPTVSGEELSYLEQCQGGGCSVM
(§2) A ChemBridge DIVERSet-CL library (ChemBridge, San Diego, CA) containing 50,000 compounds was screened to identify small molecules that inhibit Af SglA. The library was prepared in a 96-well plate format containing a cocktail of 10 compounds per well at 1 mM each in 100% DMSO. The cocktail plates were first diluted to 100 μM each (1:10 dilution in Dulbecco’s phosphate-buffered saline [DPBS]), resulting in 10% DMSO. In order to screen the compound cocktails at […] in 1% DMSO in a final reaction volume of 30 μL, an aliquot of 3 μL was added to 17 μL of buffer containing 0.23 pmol of enzyme and the reaction was started by adding 10 μL of 100 μM ResGlp. A negative control without enzyme and positive controls with and without DMSO were prepared. The plates were incubated at 37°C for 30 min. The Z′ factor was used for the assessment of the efficiency of the HTS assay for each plate. Values greater than 0.5 are considered indicators of excellent screening assay quality ([36]).

Data set [5] concerns Af wild-type strain. In words: Mouse model of pulmonary aspergillosis, survival. Type of data set: in vivo, CBA/J mice. The procedure:
Male and female CBA/J mice 5 to 6 weeks old were purchased from Envigo and allowed 1 week to acclimate upon arrival. One day prior to infection, the animals were immunosuppressed with 100 mg/kg of the corticosteroid triamcinolone acetonide (Alfa Aesar) subcutaneously as previously described ([16]). On the day of the infection, the animals were initially anesthetized with a ketamine-xylazine solution (95 mg of ketamine and 5 mg of xylazine per kg of body weight) intraperitoneally and then infected with 2.5 × 10^4 Af wild-type ΔKu80pyrG+ conidia in 20 μL of PBS intranasally. One hour after the procedure, intraperitoneal treatment with hit B (5 and 20 mg/kg/day) and hit C (20 and 60 mg/kg/day) was started and continued until 30 days postinfection. Mice that survived until day 30 were euthanized by CO2 inhalation and used for organ fungal burden determinations. A similar procedure was performed for derivative B7 at a dose of 5 mg/kg/day.

Data set [6] concerns O=c1ccc2nc3ccc(O[C@@H]4O[C@H](CO)[C@@H](O)[C@H](O)[C@H]4O)cc3oc-2c1. In words: HTS / resorufin 3β-D-glucopyranoside (ResGlp) enzymatic assay of SglA. Type of data set: biochemical, Aspergillus fumigatus. To be noted: other: substrate kinetics, 0.23 pmol of SglA; pH 6.0; 37.0 °C. The protocol:
as §1, §2

Where [7] appears, read: substrate in Triton X-100 mixed micelles, 0.11 pmol SglA, 20 min.
Setting [8] is: ErgGlc as the substrate, read-out: IC50.

pIC50: −log10 of the molar value. Several values for one entry are separate records, joined by “and”; a condition that tells them apart may be missing. Identical values can stand only once. Like-named read-outs stand apart in the source and are kept apart here.

Sequence of A. fumigatus SglA (Q4WXA7 entry or part of it): as above

With `CC(C)[C@@H](C)/C=C/[C@@H](C)[C@H]1CC[C@H]2C3=CC=C4C[C@@H](O[C@@H]5O[C@H](CO)[C@@H](O)[C@H](O)[C@H]5O)CC[C@]4(C)[C@H]3CC[C@]12C` [ErgGlc, ergosterol 3β-D-glucoside, reference compound], at A. fumigatus SglA (setting [7]), the Km turned out to be 0.57 ± 0.09 mol%; the kcat (commonly the number of substrate molecules converted per active site and unit of time at saturation) was determined as 0.73 ± 0.04 s⁻¹.
With `Cc1cc(CNc2cc(N)ncn2)c2[nH]c(C)c(C)c2c1` [Hit B1, N-[(2,3,5-trimethyl-1H-indol-7-yl)methyl]pyrimidine-4,6-diamine], the pIC50 – broadly, the negative decadic logarithm of the IC50, by convention in mol/L – at A. fumigatus SglA (setting [8]) is below 4.00.
On the same count and under the same terms, with `Cc1[nH]c2ccc(CNc3cc(NCCO)ncn3)cc2c1C` [Hit B2, 2-[(6-{[(2,3-dimethyl-1H-indol-5-yl)methyl]amino}pyrimidin-4-yl)amino]ethanol] the figure was 4.82.
For the compound `CCc1[nH]c2ccc(CNc3ccnc(N)n3)cc2c1C` [Hit B3, N~4~-[(2-ethyl-3-methyl-1H-indol-5-yl)methyl]pyrimidine-2,4-diamine], the negative logarithm of the IC50 (pIC50) on A. fumigatus SglA (setting [8]) was below 4.00.
On the same count and under the same terms, the same measure for `Cc1cc(CNc2ccnc(N)n2)c2[nH]c(C)c(C)c2c1` [Hit B4, N~4~-[(2,3,5-trimethyl-1H-indol-7-yl)methyl]pyrimidine-2,4-diamine]: below 4.00.
Consider `Cc1[nH]c2ccc(CNc3cc(N4CCOCC4)ncn3)cc2c1C` [Hit B5, N-[(2,3-dimethyl-1H-indol-5-yl)methyl]-6-morpholin-4-ylpyrimidin-4-amine], for which the pIC50 at A. fumigatus SglA (setting [8]) was 4.82.
Regarding `CCc1[nH]c2ccc(CNc3cc(C)nc(NC)n3)cc2c1C` [Hit B6, N~4~-[(2-ethyl-3-methyl-1H-indol-5-yl)methyl]-N~2~,6-dimethylpyrimidine-2,4-diamine], the pIC50 on A. fumigatus SglA (setting [8]) is 5.05.
Compound `CCc1[nH]c2ccc(CNc3nc(C)cc(NC)n3)cc2c1C` [Hit B7, N~2~-[(2-ethyl-3-methyl-1H-indol-5-yl)methyl]-N~4~,6-dimethylpyrimidine-2,4-diamine] yielded an LD50 in data set [1] of 200 µM. Besides, in the data set with wild-type Af [2] (50 and 100 μM), the “hyphal length compared with hit B” value is given as “shorter hyphae than hit B”. For the same compound, the pIC50 against A. fumigatus SglA was 5.52. Further, the “ErgGlc accumulation compared with hit B” value in the data set on wild-type Af [3] (100 μM) is “significantly higher accumulation of ErgGlc than treatment with hit B”. For the same compound, in the data set with Af wild-type strain [4], the “lung fungal burden of mice that survived 30 days” value (from here on “lung fungal burden”) is recorded as “full recovery”.
On to `Cc1[nH]c2ccc(CNc3cc(N)ncn3)cc2c1C` [Hit B], for which the “germination and hyphal growth of Af wild-type conidia” value with wild-type Af [2] (50 and 100 μM, 37°C) is “significantly delays the germination and hyphal growth”. The pIC50 on A. fumigatus SglA is 5.00; against Af SglA it was 6.00 and 5.70 to 6.00. Also, the IC50 result at A. fumigatus SglA (ErgGlc as the substrate) is reported as “low micromolar range”. Also, the “ErgGlc accumulation versus control (untreated wild-type Af)” value in the data set with wild-type Af [3] is recorded as “differed significantly from the control”. Moreover, in the data set with Af wild-type strain [4], the “lung fungal burden” value is given as “no fungal burden in the lung tissue”. The compound also had a survival of animals with Af wild-type strain [5] (20 mg/kg/day intraperitoneally, 30 days, immunosuppressed mice) of 50%.
The compound `CC(Cc1ccc2c(c1)OCO2)c1c(-c2ccccc2)ncn1CCO` (centres unmarked) [Hit C] came in with an LD50 in data set [1] above 200 µM. In addition, the hyphal growth result in the data set on wild-type Af [2] (all concentrations tested (1 to 100 μM)) was “significantly reduced hyphal growth at all concentrations tested”. Moreover, the IC50 entry on A. fumigatus SglA (ErgGlc as the substrate) was “low micromolar range”. For the same compound, the “ErgGlc accumulation versus control (untreated wild-type Af)” value in the data set on wild-type Af [3] is listed as “differed significantly from the control”. For the same compound, the pIC50 on Af SglA was 5.70 and 5.70 to 6.00. Besides, the “lung fungal burden” value in the data set on Af wild-type strain [4] was “full lung clearance”. Moreover, the “survival versus infected untreated mice” value in the data set with Af wild-type strain [5] (60 mg/kg/day intraperitoneally) is recorded as “significantly prolonged mouse survival”. The same compound gave a survival of animals with Af wild-type strain [5] (60 mg/kg/day intraperitoneally, until day 30 postinfection) of 20%.
As to Af SglA (Aspergillus fumigatus Af293), the Km in data set [6] turned out to be 86.2 µM.

The values above are taken from publication PMC10128061, “Targeting Sterylglucosidase A to Treat Aspergillus fumigatus Infections” (mBio, 2023).
